Test results as given in paper PMC11990322, “Cholinium-Based Ionic Liquids Modulate Protein Stability: A Comparative Study of Enzymes and Albumins” (Molecules, 2025).

Key:
α-chymotrypsin = molecular target: T1, α-chymotrypsin (Bos taurus, UniProt P00766); assay: Trp fluorescence quenching, double-log plot; format: binding; settings: 10 mM PBS, 1 mg/mL enzyme, excitation 295 nm
T1 construct: docking model 1YPH agrees
From the text: Trp fluorescence quenching, double-log plot on α-chymotrypsin

lysozyme = molecular target: T2, lysozyme (Gallus gallus, UniProt P00698); assay: Trp fluorescence quenching, double-log plot; format: binding; settings: 10 mM PBS, 1 mg/mL enzyme, excitation 295 nm
T2 construct: gene LYZ; docking model 6LYZ and six Trp agree
T2 sequence (P00698 19-147): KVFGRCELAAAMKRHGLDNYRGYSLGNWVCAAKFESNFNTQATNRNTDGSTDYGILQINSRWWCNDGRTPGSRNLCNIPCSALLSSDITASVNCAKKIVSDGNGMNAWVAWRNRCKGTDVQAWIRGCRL
From the text: Trp fluorescence quenching, double-log plot on lysozyme

Kb/M^-1 a (α-chymotrypsin; n = 1.40, ion-pair salt titrated as ligand, ligand perturbs the tertiary structure) [M⁻¹]	Kb/M^-1 a (lysozyme; n = 0.99, ion-pair salt titrated as ligand, ligand unfolds the tertiary structure) [M⁻¹]	Compound	Kb/M^-1 a (α-chymotrypsin; n = 1.19, ion-pair salt titrated as ligand) [M⁻¹]	Kb/M^-1 a (lysozyme; n = 1.15, ion-pair salt titrated as ligand) [M⁻¹]
		C[N+](C)(C)CCO.O=C([O-])CCC(=O)O [[Ch][Suc]]	30.95 ± 5.69	31.64 ± 6.01
280.6 ± 30.05	73.84 ± 10.34	CC(C)[C@H](N)C(=O)O [[Ch][Val]]		
